EC50, Activity and GI50 data for 48 compounds are collected here from ChEMBL document CHEMBL4418481, “Chemical agents for the prevention of inhibition or tumor metastasis” (2013).

The term EC50 denotes the concentration needed to bring the measured effect to its halfway point. The GI50 is the concentration giving 50% growth inhibition.

Activity calls are given as the source filed them. No cut-off for these calls is given here.

Chain of Protein S100-A4 (P26447 whole entry, the tested form may be a part): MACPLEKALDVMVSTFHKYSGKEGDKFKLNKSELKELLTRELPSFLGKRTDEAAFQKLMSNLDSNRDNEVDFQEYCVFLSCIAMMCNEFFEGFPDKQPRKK

One assay has as its target Protein S100-A4 (Homo sapiens, UniProt P26447). Description: Binding affinity to S100A4 (unknown origin) assessed as inhibition of S100A4/myosin-2A interaction using fluorescein-tagged myosin-2A peptide (1908 to 1923 residues) by fluorescence polarization assay.
Conditions: not given
Background: In fluorescence polarisation assays a small probe gives low polarisation when free and higher when bound to something large.
Regarding `CC(=O)NC1=CC(=O)c2cccnc2C1=O`, the concentration for a half-maximal effect (EC50) is 18 µM. Take `CC(=O)NC1=C(Sc2ccc(Cl)cc2)C(=O)c2ccccc2C1=O`: the EC50 turned out to be 94 µM. The same measure, in the same setting: in the case of `NC1=C(Cl)C(=O)c2ncccc2C1=O` it was 13.5 µM; in that of `COC1=C(N)C(=O)c2ncccc2C1=O`, 12 µM; in that of `Nc1ccc2c(c1)C(=O)C(=O)c1ccccc1-2`, 1.6 µM. Same read-out and setting: in the case of `CSC1=CC(=O)c2ccccc2C1=O` it was 92.5 µM; in that of `O=C1c2ccccc2-c2ccccc2C1(Cl)Cl`, 2.5 to 4.8 µM.

For `O=C1C=C(NCCc2cc(Br)c(O)c(Br)c2)C(=O)c2ncccc21`, the half-maximal effective concentration (EC50) was determined as 92 µM. `CCSC1=CC(=O)c2ccccc2C1=O`: the EC50 worked out at 22 µM. Turning to `Cc1ccc2c(n1)C(=O)C=CC2=O`, the EC50 came to 8.6 µM. As for `CC1=C(SCCO)C(=O)c2ccccc2C1=O`, the EC50 is 62 µM. Still for that read-out and setting: with `O=C1C(=O)c2cc(Br)ccc2-c2ccc(Br)cc21` the figure was 19 µM; with `CCCCN(CCCC)CCCNC1=CC(=O)c2ncccc2C1=O`, 70 µM; with `O=C1C(NCCF)=C(Cl)C(=O)c2ncccc21`, 28.7 µM. As to `O=C1C(=O)c2cc(Cl)ccc2-c2ccccc21`, the EC50 was 1.8 µM. Still for that read-out and setting: with `O=C1C(=O)c2ccccc2-c2ccccc21` [9,10-PHENANTHRENEQUINONE] the figure was 3.8 µM; with `O=C1C2=C(SCCS2)C(=O)c2ccccc21`, 2.2 µM. In the case of `O=C1C(=O)c2cc([N+](=O)[O-])ccc2-c2ccccc21`, the EC50 lay within 0.5 to 2 µM. The same measure, in the same setting: in the case of `O=C(O)CCSC1=CC(=O)c2ccccc2C1=O` it was 21 µM; in that of `CC1=C(SCC(=O)O)C(=O)c2ccccc2C1=O`, 39 µM; in that of `CSC1=C(C)C(=O)c2ccccc2C1=O`, 64 µM. On the same count and under the same terms, in the case of `O=C1NC(=S)S/C1=C/c1cc([N+](=O)[O-])ccc1Sc1ccc(C(F)(F)F)cn1` it was 46 µM; in that of `CCSC1=C(C)C(=O)c2ccccc2C1=O`, 51 µM. On the same count and under the same terms, in the case of `O=C1C=C(SCCO)C(=O)c2ccccc21` it was 16 µM; in that of `O=C1C(=O)c2cccc([N+](=O)[O-])c2-c2ccccc21`, 2.5 µM. Turning to `CCCCSC1=CC(=O)c2ccccc2C1=O`, the EC50 was 40 µM. Same read-out and setting: in the case of `Cc1ccc(C(=O)OC2=CC(=O)c3ccccc3C2=O)cc1` it was 64 µM; in that of `O=C1C(=C2C=Nc3ccccc32)Nc2ccc(Br)cc21`, 31 µM.

As to `Cc1ccc(S(=O)(=O)N/N=C2\C(=O)c3ccccc3-c3ccccc32)cc1`, the EC50 amounted to 8.4 µM.

In the case of `O=C1C(=O)c2cccc([N+](=O)[O-])c2-c2c1cccc2[N+](=O)[O-]`, the EC50 worked out at 16 µM. On to `O=C1C(NCCCN2CCCCC2)=CC(=O)c2ncccc21`, for which the EC50 was found to be 85 µM. Same read-out and setting: in the case of `CC(=O)N(C1=C(Cl)C(=O)c2ccccc2C1=O)c1ccc(F)cc1` it was 96 µM.

`O=C1CC(Cl)C(=O)c2ccccc21` (centres undefined): the EC50 amounted to 67.5 µM. Same read-out and setting: with `CC(=O)NC1=C(Cl)C(=O)c2ncccc2C1=O` the figure was 9 µM. For `O=C1C=CC(=O)c2ncccc21`, the EC50 stood at 16 µM. Consider `O=C1C(=O)c2cc(Cl)ccc2-c2ccc(Cl)cc21`, for which the EC50 lay within 8.1 to 8.7 µM. On the same count and under the same terms, with `O=C1C(Cl)=C(Cl)C(=O)c2ncccc21` the figure was 14 µM.

As for `O=C1C(=O)c2cc(Br)cc([N+](=O)[O-])c2-c2ccc(Br)cc21`, the EC50 turned out to be 8.3 µM. In the case of `NC1=C(Br)C(=O)c2ncccc2C1=O`, the EC50 was 16 µM. On the same count and under the same terms, in the case of `CC1=C(SCc2ccccc2)C(=O)c2ccccc2C1=O` it was 95 µM; in that of `O=C1C(=C(Br)Br)c2ccccc2-c2ccccc21`, 35 µM. On the same count and under the same terms, in the case of `O=C1C(=O)c2cc([N+](=O)[O-])ccc2-c2ccc([N+](=O)[O-])cc21` it was 18 µM; in that of `CC(=O)c1ccc2c(c1)-c1ccccc1C(=O)C2=O`, 2.2 µM; in that of `Nc1c2c(=O)[nH]c(=O)c2c(N)c2c(=O)c3ccccc3c(=O)c12`, 36 µM.

`O=C1c2ccccc2C(=O)C(Cl)C1Cl` (centres undefined): the EC50 came to 27 µM. In the case of `NC1=CC(=O)c2ncccc2C1=O`, the 50% effective concentration (EC50) was determined as 34 µM.

Another assay relates to MDA-MB-231. In words: Induction of cell death in human MDA-MB-231 cells at 50 uM incubated for 24 hrs by MTT assay relative to untreated control. It is filed as functional.
Conditions: not given
A general note: Tetrazolium assays rely on reduction of a dye to a coloured formazan, in cell work by metabolically active cells.
In turn, `Cc1oc(-c2ccc(Cl)cc2)cc1C(=O)/C(C#N)=C/c1ccccc1` yielded an Activity of 100%.

For the next assay, the system named is MDA-MB-231. Description: Growth inhibition of human MDA-MB-231 cells incubated for 24 hrs by MTT assay. Format: functional.
Conditions: not given
Turning to `O=C(O)C[C@@H]1OCC=C2CN3CC[C@]45C6=CC(=O)C(=O)C([N+](=O)[O-])=C6N[C@H]4[C@H]1[C@H]2C[C@H]35`, the GI50 result was “inactive”.

Still in this assay, the particulars now being: MDA-MB-231, 24 h.
In the case of `O=C1NC(=S)S/C1=C/c1cc([N+](=O)[O-])ccc1Sc1ccc(C(F)(F)F)cn1`, the GI50 is 190 µM.
